In ChEMBL document CHEMBL1145245, “Uracils as potent antagonists of the human gonadotropin-releasing hormone receptor without atropisomers” (Bioorg Med Chem Lett, 2005):

The compounds below were run against T1, Gonadotropin-releasing hormone receptor (Homo sapiens, UniProt P30968) (assay: Binding affinity towards human gonadotropin-releasing hormone receptor (GNRHR) using GnRH peptide as radioligand).
T1 sequence (P30968 whole entry): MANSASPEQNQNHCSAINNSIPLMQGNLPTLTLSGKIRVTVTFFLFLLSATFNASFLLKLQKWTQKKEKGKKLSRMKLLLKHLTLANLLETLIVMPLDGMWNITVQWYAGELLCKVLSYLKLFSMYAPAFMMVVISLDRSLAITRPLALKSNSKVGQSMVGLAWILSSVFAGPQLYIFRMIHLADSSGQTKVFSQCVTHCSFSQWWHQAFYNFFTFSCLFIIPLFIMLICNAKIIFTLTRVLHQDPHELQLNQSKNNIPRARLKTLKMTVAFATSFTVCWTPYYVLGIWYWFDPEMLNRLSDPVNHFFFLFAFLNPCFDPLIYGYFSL

Row | SMILES | Ki [nM]
1 | N[C@@H](Cn1c(=O)c(-c2ccc(C(F)(F)F)cc2Cl)cn(Cc2c(F)cccc2C(F)(F)F)c1=O)c1ccccc1 | 200
2 | CCOc1cccc(-c2cn(Cc3c(F)cccc3C(F)(F)F)c(=O)n(C[C@H](N)c3ccccc3)c2=O)c1F | 1.8
3 | N[C@@H](Cn1c(=O)c(-c2cccc(OCC(F)(F)F)c2F)cn(Cc2c(F)cccc2C(F)(F)F)c1=O)c1ccccc1 | 8.2
4 | COc1cccc(-c2cn(Cc3c(F)cccc3F)c(=O)n(C[C@H](N)c3ccccc3)c2=O)c1Cl | 1
5 | COc1cccc(-c2cn(Cc3c(F)cccc3C(F)(F)F)c(=O)n(C[C@H](N)c3ccccc3)c2=O)c1Cl | 0.45
6 | N[C@@H](Cn1c(=O)c(-c2ccccc2F)cn(Cc2c(F)cccc2C(F)(F)F)c1=O)c1ccccc1 | 8
7 | Cc1ccc(-c2cn(Cc3c(F)cccc3C(F)(F)F)c(=O)n(C[C@H](N)c3ccccc3)c2=O)c(Cl)c1 | 2.6
8 | N[C@@H](Cn1c(=O)c(-c2cccc(O)c2F)cn(Cc2c(F)cccc2F)c1=O)c1ccccc1 | 660
9 | CC(C)Oc1cccc(-c2cn(Cc3c(F)cccc3C(F)(F)F)c(=O)n(C[C@H](N)c3ccccc3)c2=O)c1F | 6.3
10 | CS(=O)(=O)c1cccc(C(F)(F)F)c1Cn1cc(-c2ccccc2Cl)c(=O)n(C[C@H](N)c2ccccc2)c1=O | 3100
11 | N[C@@H](Cn1c(=O)c(-c2ccccc2C(F)(F)F)cn(Cc2c(F)cccc2C(F)(F)F)c1=O)c1ccccc1 | 4
12 | N[C@@H](Cn1c(=O)c(-c2cccc(O)c2F)cn(Cc2c(F)cccc2C(F)(F)F)c1=O)c1ccccc1 | 18

Other lines, results leading:

Row | Ki [nM] | SMILES
13 | 120 | COc1cccc(-c2cn(Cc3c(F)cccc3S(=O)(=O)N(C)C)c(=O)n(C[C@H](N)c3ccccc3)c2=O)c1F
14 | 30 | COc1cccc(-c2cn(Cc3c(F)cccc3S(=O)(=O)C(C)C)c(=O)n(C[C@H](N)c3ccccc3)c2=O)c1F
15 | 1400 | COc1cccc(-c2cn(Cc3c(F)cccc3S(=O)(=O)N3CCOCC3)c(=O)n(C[C@H](N)c3ccccc3)c2=O)c1F
16 | 1.4 | COc1cccc(-c2cn(Cc3c(F)cccc3Cl)c(=O)n(C[C@H](N)c3ccccc3)c2=O)c1F
17 | 9.1 | COc1cccc(-c2cn(Cc3c(F)cccc3S(=O)(=O)CCO)c(=O)n(C[C@H](N)c3ccccc3)c2=O)c1F
18 | 19 | COc1cccc(-c2cn(Cc3c(F)cccc3SC)c(=O)n(C[C@H](N)c3ccccc3)c2=O)c1F
